From patent US20250034171A1, “IMIDAZOPYRIDINE AMIDES AND RELATED COMPOUNDS FOR USE IN THE TREATMENT OF BACTERIAL INFECTIONS” (priority 2021, published 2025)
Values after ≈ are worked out from the molar mass of the structure shown. Like-named read-outs stand apart in the source and are kept apart here.

What was measured:
[1] = test system: Mycobacterium tuberculosis strain H37Rv; assay: Test 2: MIC determination against M. tuberculosis, resazurin fluorescence; format: cell-based; settings: Test 2, M. tuberculosis H37Rv; for MIC90: read-out: Bacterial activity MIC90; for IC50: read-out: Bacterial activity pMIC50 (converted)
[2] = Metabolic stability in liver microsomes (intrinsic clearance); format: in vitro ADME; settings: microsomes
Description: The test compound was incubated under the generic condition (0.5 mg/ml microsomal protein, 1 mM NADPH, 1 mM MgCl2, and 0.1 M phosphate buffer, pH 7.4, 37° C.) at a defined substrate concentration (typically 1 μM) in liver microsomes of selected species across a time course (typically 0, 5, 10, 20, 40 and 60 minutes) at Cyprotex (Cheshire, UK). The liver microsomes, buffer and test compound will be pre-incubated for 5 minutes. The addition of the co-factor NADPH will initiate the reaction and the reaction was terminated by addition of acetonitrile. The samples were centrifuged prior to analysis by LC-MS/MS analysis. The relative amount of parent compound remaining in the active incubations vs. the control incubations (t=0 mins) for each compound was measured by peak area comparison. The in vitro metabolic half-life (t1/2) was calculated using the slope of the log-linear regression from the percentage parent compound remaining versus time relationship (κ), The in vitro intrinsic clearance (Cl^int) (μl/min/mg microsomal protein) was calculated using the in vitro metabolic half-life, incubation volume and the weight of microsomal protein in the incubation.

[3] = Mycobacterium tuberculosis, H37RV

SMILES	MIC90 [1, 3]	IC50 [1, 3]	also measured
CCc1nc2ncc(C)cn2c1C(=O)NCc1ccc(-c2nc3n(n2)CCC(C(F)(F)F)C3)cc1 (single isomer, unassigned) [Compound 1b]			Bacterial activity pMIC50 [1]: 8.576; MIC90 [1]: 0.007 µM (≈ 0.00338 µg/mL); Metabolic Stability (liver microsome intrinsic clearance) Clearance (human, μl/min./mg protein) ([2]; human): 7.81 μl/min./mg protein; Metabolic Stability Half life (human, min.) ([2]; human): 2.97 h; Metabolic Stability (liver microsome intrinsic clearance) Clearance (mouse, μl/min./mg protein) [2]: 7.8 μl/min./mg protein; Metabolic Stability Half life (mouse, min.) [2]: 2.97 h
CCc1nc2ncccn2c1C(=O)NCc1ccc(-c2nc3n(n2)CC[C@@H](C(F)(F)F)C3)c(F)c1 (single isomer, unassigned) [Compound 73]			Bacterial activity pMIC50 [1]: 7.18; MIC90 [1]: 0.35 µM (≈ 0.171 µg/mL); Metabolic Stability (liver microsome intrinsic clearance) Clearance (mouse, μl/min./mg protein) [2]: <7.7 μl/min./mg protein; Metabolic Stability Half life (mouse, min.) [2]: >3 h
CCc1nc2ncccn2c1C(=O)NCc1ccc(-c2nc3n(n2)CC[C@H](C(F)(F)F)C3)c(F)c1 (single isomer, unassigned) [Compound 74]			Bacterial activity pMIC50 [1]: 6.94; MIC90 [1]: >0.5 µM; Metabolic Stability (liver microsome intrinsic clearance) Clearance (mouse, μl/min./mg protein) [2]: <7.7 μl/min./mg protein; Metabolic Stability Half life (mouse, min.) [2]: >3 h
CCc1nc2n(c1C(=O)NCc1ccc(-c3nc4n(n3)CC[C@H](C(F)(F)F)C4)c(F)c1)CCCC2 (single isomer, unassigned) [Compound 77]			Bacterial activity pMIC50 [1]: 7.6; MIC90 [1]: 0.098 µM (≈ 0.0481 µg/mL); Metabolic Stability (liver microsome intrinsic clearance) Clearance (mouse, μl/min./mg protein) [2]: 26.1 μl/min./mg protein; Metabolic Stability Half life (mouse, min.) [2]: 0.885 h
CCc1nc2ncc(C)cn2c1C(=O)NCc1ccc(-c2nc3n(n2)CCCC3)c(C)n1 [Compound 148]	> 0.5 µM	331000 pM	
CCc1nc2ncccn2c1C(=O)NCc1ccc(-c2nc3n(n2)CCC(C)C3)cc1 (stereo not shown) [Compound 149]	> 0.5 µM	229000 pM	
[2H]C([2H])([2H])c1cnc2nc(CC)c(C(=O)NCc3ccc(-c4nc5n(n4)CC[C@@H](C)C5)cc3)n2c1 [Compound 150]	0.03 µM (≈ 0.013 µg/mL)	10000 pM	
CCc1nc2ccc(C(F)(F)F)cn2c1C(=O)NCc1ccc(-c2cn3c(n2)C[C@@H](C(F)(F)F)CC3)cc1 [Compound 153]	> 0.5 µM	> 501000 pM	
CCc1nc2ccc(C(F)(F)F)cn2c1C(=O)NCc1ccc(-c2cn3c(n2)C[C@H](C(F)(F)F)CC3)cc1 [Compound 154]	> 0.5 µM	> 501000 pM	
CCc1nc2ncc(C(F)(F)F)cn2c1C(=O)NCc1ccc(-c2nc3n(n2)CC[C@@H](C)C3)cc1 [Compound 155]	> 0.5 µM	> 501000 pM	
CCc1nc2ncccn2c1C(=O)NCc1ccc(-c2nc3n(n2)CC[C@@H](C)C3)cc1 [Compound 156]	> 0.5 µM	191000 pM	
CCc1nc2ncccn2c1C(=O)NCc1ccc(-c2nc3n(n2)CC[C@H](C)C3)cc1 [Compound 157]	0.41 µM (≈ 0.17 µg/mL)	126000 pM	
CCc1nc2ncccn2c1C(=O)NCc1ccc(-c2cn3c(n2)C[C@H](C(F)(F)F)CC3)cc1 [Compound 158]	0.29 µM (≈ 0.136 µg/mL)	75900 pM	
CCc1nc2ccccn2c1C(=O)NCc1ccc(-c2nc3n(n2)CC[C@H](C)C3)cc1 [Compound 159]	0.037 µM (≈ 0.0153 µg/mL)	11000 pM	
CCc1nc2n(c1C(=O)NCc1ccc(-c3nc4n(n3)CC[C@H](C)C4)cc1)CCCC2 [Compound 160]	0.088 µM (≈ 0.0368 µg/mL)	35500 pM	
CCc1nc2ccccn2c1C(=O)NCc1ccc(-c2cn3c(n2)C[C@@H](C(F)(F)F)CC3)cc1 [Compound 161]	0.056 µM (≈ 0.0262 µg/mL)	18600 pM	
CCc1nc2ccccn2c1C(=O)NCc1ccc(-c2nc3n(n2)CC[C@@H](C)C3)cc1 [Compound 162]	0.044 µM (≈ 0.0182 µg/mL)	11200 pM	
CCc1nc2n(c1C(=O)NCc1ccc(-c3nc4n(n3)CC[C@@H](C)C4)cc1)CCCC2 [Compound 163]	0.17 µM (≈ 0.0712 µg/mL)	66100 pM	
CCc1nc2n(c1C(=O)NCc1ccc(-c3cn4c(n3)C[C@H](C(F)(F)F)CC4)cc1)CCCC2 [Compound 164]	0.058 µM (≈ 0.0273 µg/mL)	17000 pM	
CCc1nc2ccccn2c1C(=O)NCc1ccc(-c2cn3c(n2)C[C@H](C(F)(F)F)CC3)cc1 [Compound 165]	0.055 µM (≈ 0.0257 µg/mL)	16200 pM	
CCc1nc2ncccn2c1C(=O)NCc1ccc(-c2cn3c(n2)C[C@@H](C(F)(F)F)CC3)cc1 [Compound 166]	> 0.5 µM	145000 pM	

SMILES	MIC90 [1, 3]	IC50 [1, 3]	also measured
CCc1nc2n(c1C(=O)NCc1ccc(-c3nc4n(n3)CC[C@@H](C(F)(F)F)C4)cc1)C[C@@H](OC)CC2 [Compound 167]	0.45 µM (≈ 0.226 µg/mL)	132000 pM	
CCc1nc2n(c1C(=O)NCc1ccc(-c3nc4n(n3)CC[C@H](C(F)(F)F)C4)cc1)C[C@@H](OC)CC2 [Compound 168]	0.5 µM (≈ 0.251 µg/mL)	174000 pM	
O=C(NCc1ccc(-c2nc3n(n2)CC[C@H](C(F)(F)F)C3)cc1)c1c(C(F)(F)F)nc2ncccn12 [Compound 170]	> 0.45 µM	> 275000 pM	
CCc1nc2ncccn2c1C(=O)NCc1ccc(-c2nc3n(n2)CC[C@@H](C(F)(F)F)C3)cc1 [Compound 171]	0.18 µM (≈ 0.0845 µg/mL)	46800 pM	
CCc1nc2ncc(C(F)(F)F)cn2c1C(=O)NCc1ccc(-c2nc3n(n2)CC[C@@H](C(F)(F)F)C3)cc1 [Compound 172]	> 0.46 µM	> 295000 pM	
CCc1nc2ncc(C(F)(F)F)cn2c1C(=O)NCc1ccc(-c2nc3n(n2)CC[C@H](C(F)(F)F)C3)cc1 [Compound 173]			Bacterial activity pMIC50 [1]: <6.49; MIC90 [1]: >0.47 µM
CCc1nc2ncc(Cl)cn2c1C(=O)NCc1ccc(-c2cn3c(n2)C[C@H](C(F)(F)F)CC3)cc1 [Compound 175]	0.059 µM (≈ 0.0297 µg/mL)	21900 pM	
CCc1nc2ncc(Cl)cn2c1C(=O)NCc1ccc(-c2cn3c(n2)C[C@@H](C(F)(F)F)CC3)cc1 [Compound 176]	0.039 µM (≈ 0.0196 µg/mL)	12600 pM	
CCc1nc2ncccn2c1C(=O)NCc1ccc(-c2nc3n(n2)C[C@@H](C(F)(F)F)CC3)cc1 [Compound 181]	0.22 µM (≈ 0.103 µg/mL)	57500 pM	
CCc1nc2ncccn2c1C(=O)NCc1ccc(-c2nc3n(n2)C[C@H](C(F)(F)F)CC3)cc1 [Compound 182]	0.2 µM (≈ 0.0939 µg/mL)	52500 pM	
CCc1nc2n(c1C(=O)NCc1ccc(-c3cn4c(n3)CC(C(F)(F)F)CC4)c(F)c1)CCCC2 (stereo not shown) [Compound 185]	0.034 µM (≈ 0.0166 µg/mL)	9770 pM	
CCc1nc2ncccn2c1C(=O)NCc1ccc(-c2cc3n(n2)CCCC3)cc1 [Compound 187]	> 0.5 µM	151000 pM	
CCc1nc2n(c1C(=O)NCc1ccc(-c3nc4n(n3)CC(C(F)(F)F)CC4)cc1)CCCC2 (stereo not shown) [Compound 188]	0.23 µM (≈ 0.109 µg/mL)	22900 pM	
CCc1nc2ncccn2c1C(=O)NCc1ccc(-c2nc3n(n2)CCC(C(C)(F)F)C3)cc1 (stereo not shown) [Compound 189]	0.33 µM (≈ 0.154 µg/mL)	87100 pM	
CCc1nc2ncccn2c1C(=O)NCc1ccc(-c2nc3n(n2)CC[C@H](C(F)(F)F)C3)cc1 [Compound 190]	0.19 µM (≈ 0.0892 µg/mL)	47900 pM	
CCc1nc2ncc(C(F)(F)F)cn2c1C(=O)NCc1ccc(-c2cn3c(n2)C[C@H](C(F)(F)F)CC3)cc1 [Compound 192]	> 5 µM	1.55e+06 pM	
CCc1nc2ncc(C(F)(F)F)cn2c1C(=O)NCc1ccc(-c2cn3c(n2)C[C@@H](C(F)(F)F)CC3)cc1 [Compound 193]	> 0.5 µM	> 501000 pM	
CCc1nc2ncc(N)cn2c1C(=O)NCc1ccc(-c2nc3n(n2)CCC(C(F)(F)F)C3)c(F)c1 (stereo not shown) [Compound 197]	0.21 µM (≈ 0.106 µg/mL)	69200 pM	
CCc1nc2ncc(N)cn2c1C(=O)NCc1ccc(-c2nc3n(n2)CCC(C(F)(F)F)C3)c(C)c1 (stereo not shown) [Compound 198]	0.15 µM (≈ 0.0748 µg/mL)	45700 pM	
CCc1nc2ncc(N)cn2c1C(=O)NCc1ccc(-c2nc3n(n2)CCCC3)cc1 [Compound 199]	> 0.5 µM	> 501000 pM	
CCc1nc2ncc(N)cn2c1C(=O)NCc1ccc(-c2nc3n(n2)CCC(C(C)(F)F)C3)cc1 (stereo not shown) [Compound 200]	0.22 µM (≈ 0.106 µg/mL)	61700 pM	
